± gives the standard deviation of the averaged measurements.
Legend:
Assay in all cases: level (log10 ratio to DMSO vehicle control); higher = higher biomarker level / cell amount than vehicle control
Details in all cases: in DMSO
[1] = compound: O=P(O)(O)CCC(F)(F)C(F)(F)C(F)(F)C(F)(F)C(F)(F)C(F)(F)C(F)(F)C(F)(F)F [((Perfluorooctyl)ethyl)phosphonic acid]
Protocol: (§1)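 BioMAP Diversity Plus panel of 12 human primary cell co-culture systems (3C, 4H, LPS, SAg, BT, BF4T, BE3C, CASM3C, HDF3CGF, KF3CT, MyoF, Mphg). Compounds were added 1 h before stimulation and left for 24 h (MyoF 48 h; BT 72 h for soluble read-outs or 6 d for IgG). Biomarkers were read by ELISA, cytotoxicity by SRB, PBMC viability and proliferation by Alamar Blue. Each well value was divided by the mean of 8 DMSO control wells on the same plate and log10 transformed; duplicate blinded samples were tested at 4 concentrations.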

[2] = compound: O=C(O)CCC(F)(F)C(F)(F)C(F)(F)C(F)(F)C(F)(F)F [2H,2H,3H,3H-Perfluorooctanoic acid]
Protocol: as §1

[3] = compound: C=C(C)C(=O)OCC(F)(F)C(F)(F)C(F)(F)C(F)(F)C(F)(F)C(F)(F)C(F)(F)F
Protocol: as §1

[4] = compound: Cn1cnc([N+](=O)[O-])c1Sc1ncnc2[nH]cnc12 [Azathioprine]
Protocol: as §1

[5] = compound: O=C(O)CCC(F)(F)C(F)(F)C(F)(F)F [3:3 Fluorotelomer carboxylic acid]
Protocol: as §1

[6] = compound: OCC(F)(F)C(F)(F)C(F)(F)F [1H,1H-Heptafluorobutanol]
Protocol: as §1

Test System | level (log10) ([1]; 6700 nM) | level (log10) ([1]; 20000 nM) | level (log10) ([1]; 60000 nM) | level (log10) ([2]; 6700 nM) | level (log10) ([2]; 20000 nM) | level (log10) ([2]; 60000 nM) | level (log10) ([3]; 6700 nM) | level (log10) ([3]; 20000 nM) | level (log10) ([4]; 1400 nM) | level (log10) ([4]; 4200 nM) | level (log10) ([4]; 13000 nM) | level (log10) ([4]; 38000 nM) | level (log10) ([5]; 6700 nM) | level (log10) ([5]; 20000 nM) | level (log10) ([5]; 60000 nM) | level (log10) ([6]; 6700 nM) | level (log10) ([6]; 20000 nM) | level (log10) ([6]; 60000 nM)
SAg:Proliferation | -0.023 ± 0.023 | -0.03 ± 0.0071 | -0.0345 ± 0.077 | -0.011 ± 0.017 | -0.0475 ± 0.067 | -0.115 | 0.0015 ± 0.0064 | 0.0185 ± 0.0092 | -0.017 ± 0.047 | -0.052 ± 0.035 | -0.172 ± 0.005 | -0.29 ± 0.021 | -0.021 ± 0.013 | 0.0205 ± 0.053 | -0.006 ± 0.0085 | 0.009 ± 0.0042 | 0.008 ± 0.02 | 0.0125 ± 0.021
SAg:SRB | -0.01 ± 0.021 | -0.042 ± 0.034 | -0.125 ± 0.044 | -0.0065 ± 0.00071 | -0.0095 ± 0.0035 | -0.0025 ± 0.013 | -0.001 ± 0.0099 | -0.0095 ± 0.021 | 0.002 ± 0.0057 | 0.0045 ± 0.013 | -0.009 ± 0.0042 | -0.0205 ± 0.026 | -0.0065 ± 0.011 | -0.0065 ± 0.0078 | -0.005 ± 0.016 | -0.0055 ± 0.011 | 0.0045 ± 0.0035 | 0.004 ± 0.0057

Source: the supplement of paper PMC10331698
